The subject of data set [1] is Rattus norvegicus. Briefly: In vivo increase in HDL-c in ZDF rats at 30 mg/kg bid dose after 7 day administration. The class given is functional.
For data set [2], the target named is T1, Peroxisome proliferator-activated receptor gamma (Homo sapiens, UniProt P37231).
T1 sequence (P37231 whole entry): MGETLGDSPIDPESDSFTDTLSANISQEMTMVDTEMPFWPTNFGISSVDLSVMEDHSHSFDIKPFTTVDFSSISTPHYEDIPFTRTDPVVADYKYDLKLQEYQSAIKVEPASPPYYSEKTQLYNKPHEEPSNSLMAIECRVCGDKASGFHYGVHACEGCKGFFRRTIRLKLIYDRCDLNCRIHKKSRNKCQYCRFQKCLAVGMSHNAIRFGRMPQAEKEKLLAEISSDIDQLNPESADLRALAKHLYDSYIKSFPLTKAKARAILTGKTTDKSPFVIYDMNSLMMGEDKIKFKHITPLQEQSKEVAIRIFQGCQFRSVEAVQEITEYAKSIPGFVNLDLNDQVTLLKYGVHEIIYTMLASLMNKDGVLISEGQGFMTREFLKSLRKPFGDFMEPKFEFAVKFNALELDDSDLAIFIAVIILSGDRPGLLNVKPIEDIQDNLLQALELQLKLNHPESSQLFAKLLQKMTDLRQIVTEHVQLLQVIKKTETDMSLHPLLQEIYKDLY
Briefly: Agonistic transcriptional activity in CV-1 cells expressing Gal4-PPAR gamma chimera. The class given is functional, cell-based.

In data set [3] the target is T2, Peroxisome proliferator-activated receptor alpha (Homo sapiens, UniProt Q07869).
T2 sequence (Q07869 whole entry): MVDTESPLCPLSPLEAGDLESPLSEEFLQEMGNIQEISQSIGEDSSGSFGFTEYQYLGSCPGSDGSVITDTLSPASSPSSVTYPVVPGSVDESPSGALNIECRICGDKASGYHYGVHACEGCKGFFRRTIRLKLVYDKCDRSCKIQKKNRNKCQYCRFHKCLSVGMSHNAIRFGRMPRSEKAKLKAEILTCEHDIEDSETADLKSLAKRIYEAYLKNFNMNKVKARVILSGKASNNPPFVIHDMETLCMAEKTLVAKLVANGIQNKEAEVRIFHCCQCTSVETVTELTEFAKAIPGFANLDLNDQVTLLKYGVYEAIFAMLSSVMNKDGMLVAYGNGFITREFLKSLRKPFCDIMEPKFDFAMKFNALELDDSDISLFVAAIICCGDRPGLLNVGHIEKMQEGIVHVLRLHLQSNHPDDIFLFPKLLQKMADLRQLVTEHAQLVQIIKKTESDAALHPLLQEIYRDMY
Briefly: Agonistic transcriptional activity in CV-1 cells expressing Gal4-PPAR alpha chimera. Type of data set: functional, cell-based.

In data set [4] the test system is Rattus norvegicus. In words: In vivo percent reduction in serum triglycerides in ZDF rats at 30 mg/kg bid dose after 7 day administration. Type of data set: functional.
Data set [5] can be described thus: Mean plasma concentration at a oral dose of 3 mg/kg in rat at 0.5 hr. The class given is ADME, organism-based. On the set-up: dose 3 mg/kg, route oral.
Data set [6] deals with T3, Peroxisome proliferator-activated receptor delta (Homo sapiens, UniProt Q03181).
T3 sequence (Q03181 whole entry): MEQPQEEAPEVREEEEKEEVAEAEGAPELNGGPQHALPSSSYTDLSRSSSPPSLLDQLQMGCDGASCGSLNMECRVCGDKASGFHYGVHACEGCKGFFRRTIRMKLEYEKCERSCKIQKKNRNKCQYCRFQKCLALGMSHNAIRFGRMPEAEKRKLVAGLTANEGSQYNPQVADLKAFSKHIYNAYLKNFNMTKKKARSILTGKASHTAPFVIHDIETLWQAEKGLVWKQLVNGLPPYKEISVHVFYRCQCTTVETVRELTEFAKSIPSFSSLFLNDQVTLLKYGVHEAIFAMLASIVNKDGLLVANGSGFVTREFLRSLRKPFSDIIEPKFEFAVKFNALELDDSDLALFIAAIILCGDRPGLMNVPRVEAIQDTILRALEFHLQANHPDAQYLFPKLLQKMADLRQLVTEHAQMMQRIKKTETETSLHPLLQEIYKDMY
Briefly: Agonistic transcriptional activity in CV-1 cells expressing Gal4-PPAR delta chimera. Type of data set: functional, cell-based.

Data set [7] can be described thus: Mean plasma concentration at a oral dose of 3 mg/kg in rat at 1.0 hr. The class given is ADME, organism-based. On the set-up: dose 3 mg/kg, route oral.
Data set [8] deals with Rattus norvegicus. In words: In vivo percent reduction in plasma glucose in ZDF rats at 30 mg/kg bid dose after 7 day administration. Type of data set: functional.
For data set [9], the target named is T4, Peroxisome proliferator-activated receptor alpha (Mus musculus, UniProt P23204).
T4 sequence (P23204 whole entry): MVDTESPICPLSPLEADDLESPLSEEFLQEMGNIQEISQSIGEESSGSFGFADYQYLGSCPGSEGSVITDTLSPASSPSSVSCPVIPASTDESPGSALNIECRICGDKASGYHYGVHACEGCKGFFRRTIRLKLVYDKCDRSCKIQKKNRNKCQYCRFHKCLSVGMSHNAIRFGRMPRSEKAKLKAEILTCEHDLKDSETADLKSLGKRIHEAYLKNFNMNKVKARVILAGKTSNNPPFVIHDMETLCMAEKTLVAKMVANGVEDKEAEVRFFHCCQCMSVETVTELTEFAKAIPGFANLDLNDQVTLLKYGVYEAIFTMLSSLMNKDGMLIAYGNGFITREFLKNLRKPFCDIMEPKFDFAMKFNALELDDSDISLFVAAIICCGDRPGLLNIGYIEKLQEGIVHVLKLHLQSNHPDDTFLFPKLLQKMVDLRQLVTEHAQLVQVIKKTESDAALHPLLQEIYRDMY
In words: Agonist activity against PPAR alpha. The class given is functional.

Data set [10] can be described thus: Mean plasma concentration at a oral dose of 3 mg/kg in rat at 2.0 hr. Type of data set: ADME, organism-based. On the set-up: dose 3 mg/kg, route oral.
Data set [11] addresses T5, Peroxisome proliferator-activated receptor delta (Mus musculus, UniProt P35396).
T5 sequence (P35396 whole entry): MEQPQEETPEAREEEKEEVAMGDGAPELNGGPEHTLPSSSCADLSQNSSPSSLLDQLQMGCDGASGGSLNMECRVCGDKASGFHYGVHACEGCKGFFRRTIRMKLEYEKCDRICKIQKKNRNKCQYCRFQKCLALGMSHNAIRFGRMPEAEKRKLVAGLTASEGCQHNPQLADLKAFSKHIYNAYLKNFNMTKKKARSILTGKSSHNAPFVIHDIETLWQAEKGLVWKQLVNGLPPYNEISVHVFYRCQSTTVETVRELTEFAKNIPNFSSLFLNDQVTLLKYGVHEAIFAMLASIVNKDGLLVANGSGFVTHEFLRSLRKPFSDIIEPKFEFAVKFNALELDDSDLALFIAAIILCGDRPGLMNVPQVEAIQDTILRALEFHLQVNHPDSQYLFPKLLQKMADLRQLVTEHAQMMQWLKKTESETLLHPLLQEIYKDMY
In words: Agonist activity against PPAR delta. The class given is functional.

The target in data set [12] is T6, Peroxisome proliferator-activated receptor gamma (Mus musculus, UniProt P37238).
T6 sequence (P37238 whole entry): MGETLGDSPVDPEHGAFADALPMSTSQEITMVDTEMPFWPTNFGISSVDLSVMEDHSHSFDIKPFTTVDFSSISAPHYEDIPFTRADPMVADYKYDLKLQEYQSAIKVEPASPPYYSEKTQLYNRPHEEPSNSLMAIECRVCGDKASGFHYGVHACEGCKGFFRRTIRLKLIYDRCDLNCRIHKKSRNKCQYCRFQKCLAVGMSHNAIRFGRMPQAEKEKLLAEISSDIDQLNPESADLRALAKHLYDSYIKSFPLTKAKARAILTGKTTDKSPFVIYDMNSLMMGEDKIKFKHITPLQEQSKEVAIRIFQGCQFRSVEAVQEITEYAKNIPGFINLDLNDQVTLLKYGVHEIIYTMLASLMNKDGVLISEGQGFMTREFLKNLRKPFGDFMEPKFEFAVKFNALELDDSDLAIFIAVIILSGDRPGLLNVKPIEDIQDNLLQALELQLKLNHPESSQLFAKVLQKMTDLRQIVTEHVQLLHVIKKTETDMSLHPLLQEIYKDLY
Briefly: Agonist activity against PPAR gamma. Type of data set: functional.

On to `CC(C)(Oc1cccc(CCCN(Cc2ccc(C(F)(F)F)cc2C(F)(F)F)C(=O)Cc2ccc(C(F)(F)F)cc2)c1)C(=O)O`, for which the Reduction in the data set on Rattus norvegicus [1] came out at 24%; with Rattus norvegicus [4], 51%; with Rattus norvegicus [8], 47%. The EC50 in [2] is 4 nM; in data set [3], 620 nM; in data set [6], 19 nM; in [9], above 1000 nM; in data set [11] it was 19 nM; in [12] it was 28 nM. In [5], this compound gave a concentration at 0.5 h of 373 ng/mL. The compound also displayed a concentration at 1 h in [7] of 722 ng/mL. Moreover, the concentration at 2 h in [10] is 524 ng/mL.

As for `CC(C)(Oc1cccc(CCCN(Cc2ccc(C(F)(F)F)cc2C(F)(F)F)C(=O)COc2ccc(Cl)c(Cl)c2)c1)C(=O)O`, the results for the concentration giving a half-maximal response (EC50) in [2], in data set [3] and in [6] were 30 nM, 710 nM and 93 nM, respectively.

On to `CCOC(=O)c1ccc(NC(=O)N(CCCc2cccc(OC(C)(C)C(=O)O)c2)Cc2ccc(C(F)(F)F)cc2C(F)(F)F)cc1`, for which the results for the EC50 in data set [2], in [3] and in [6] were 0.5 nM, 230 nM and 160 nM, respectively.

Source of the values: ChEMBL document CHEMBL1133842, “Identification of a series of PPAR gamma/delta dual agonists via solid-phase parallel synthesis” (Bioorg Med Chem Lett, 2001).
